Structures are written as SMILES.

In this experiment the test system is Mo7e cells which endogenously express c-kit. Briefly: Mo7e assay: inhibition of SCF dependent proliferation (MTT). The settings on record: Table 1; SCF stimulated Mo7e cells, 48 hours, MTT. The format is cell-based. The protocol:
The compounds described herein are tested for inhibition of SCF dependent proliferation using Mo7e cells which endogenously express c-kit in a 96 well format. Two-fold serially diluted test compounds (Cmax=10 μM) are evaluated for their antiproliferative activity of Mo7e cells stimulated with human recombinant SCF. After 48 hours of incubation at 37° C., cell viability is measured by using a MTT colorimetric assay from Promega. IC50 values for compounds of the invention are quoted in table 1, supra.
In turn, `CCC(CC)c1nc(Nc2ccc(C)c(-c3cc4cnc(C)cc4n(C)c3=O)c2)no1` [Compound A31, 1,7-dimethyl-3-(2-methyl-5-{[5-(pentan-3-yl)-1,2,4-oxadiazol-3-yl]amino}phenyl)-1,2-dihydro-1,6-naphthyridin-2-one] gave an IC50 of 105 nM.

In the case of `Cc1cc2c(cn1)cc(-c1cc(Nc3noc(C(C)(C)O)n3)ccc1C)c(=O)n2C` [Compound A32, 3-(5-(5-(2-hydroxypropan-2-yl)-1,2,4-oxadiazol-3-ylamino)-2-methylphenyl)-1,7-dimethyl-1,6-naphthyridin-2(1H)-one], it took 172 nM to reach half-maximal inhibition (IC50).

In turn, `Cc1cc2c(cn1)cc(-c1cc(Nc3noc(C4CCOCC4)n3)ccc1C)c(=O)n2C` [Compound A33, 1,7-dimethyl-3-(2-methyl-5-{[5-(oxan-4-yl)-1,2,4-oxadiazol-3-yl]amino}phenyl)-1,2-dihydro-1,6-naphthyridin-2-one] displayed an IC50 of 444 nM.

For `Cc1cc2c(cn1)cc(-c1cc(Nc3noc(C4(C)CC4)n3)ccc1C)c(=O)n2C` [Compound A34, 1,7-dimethyl-3-(2-methyl-5-(5-(1-methylcyclopropyl)-1,2,4-oxadiazol-3-ylamino)phenyl)-1,6-naphthyridin-2(1H)-one], the IC50 is 83 nM.

Regarding `Cc1cc2c(cn1)cc(-c1cc(Nc3noc(C(C)(C)CO)n3)ccc1C)c(=O)n2C` [Compound A35, 3-(5-(5-(1-hydroxy-2-methylpropan-2-yl)-1,2,4-oxadiazol-3-ylamino)-2-methylphenyl)-1,7-dimethyl-1,6-naphthyridin-2(1H)-one], the IC50 came to 181 nM.

In turn, `Cc1cc2c(cn1)cc(-c1cc(Nc3noc(-c4ccc(O)cc4)n3)ccc1C)c(=O)n2C` [Compound A36, 3-(5-{[5-(4-hydroxyphenyl)-1,2,4-oxadiazol-3-yl]amino}-2-methylphenyl)-1,7-dimethyl-1,2-dihydro-1,6-naphthyridin-2-one] gave an IC50 of 375 nM. Compared with the last compound, the IC50 is about 2.1-fold higher.

The compound `Cc1cc2c(cn1)cc(-c1cc(Nc3noc(-c4ccc(C#N)cc4)n3)ccc1C)c(=O)n2C` [Compound A37, 4-(3-{[3-(1,7-dimethyl-2-oxo-1,2-dihydro-1,6-naphthyridin-3-yl)-4-methylphenyl]amino}-1,2,4-oxadiazol-5-yl)benzonitrile] gave an IC50 of 57 nM.

Compound `Cc1cc2c(cn1)cc(-c1cc(Nc3noc(-c4ccccc4C#N)n3)ccc1C)c(=O)n2C` [Compound A38, 2-(3-{[3-(1,7-dimethyl-2-oxo-1,2-dihydro-1,6-naphthyridin-3-yl)-4-methylphenyl]amino}-1,2,4-oxadiazol-5-yl)benzonitrile] returned an IC50 of 325 nM.

`Cc1cc2c(cn1)cc(-c1cc(Nc3noc(-c4cccc(O)c4)n3)ccc1C)c(=O)n2C` [Compound A39, 3-(5-{[5-(3-hydroxyphenyl)-1,2,4-oxadiazol-3-yl]amino}-2-methylphenyl)-1,7-dimethyl-1,2-dihydro-1,6-naphthyridin-2-one] gave an IC50 of 480 nM. This IC50 and that of the compound before are within 1.5-fold of each other.

Take `Cc1cc2c(cn1)cc(-c1cc(Nc3noc(-c4cccc(C#N)c4)n3)ccc1C)c(=O)n2C` [Compound A40, 3-(3-{[3-(1,7-dimethyl-2-oxo-1,2-dihydro-1,6-naphthyridin-3-yl)-4-methylphenyl]amino}-1,2,4-oxadiazol-5-yl)benzonitrile]: the IC50 amounted to 299 nM.

`Cc1cc2c(cn1)cc(-c1cc(Nc3noc(-c4ccc(OC(F)(F)F)cc4)n3)ccc1C)c(=O)n2C` [Compound A41, 1,7-dimethyl-3-[2-methyl-5-({5-[4-(trifluoromethoxy)phenyl]-1,2,4-oxadiazol-3-yl}amino)phenyl]-1,2-dihydro-1,6-naphthyridin-2-one] yielded an IC50 of 53 nM.

Compound `Cc1cc2c(cn1)cc(-c1cc(Nc3noc(-c4cccc(O)n4)n3)ccc1C)c(=O)n2C` [Compound A42, 3-(5-{[5-(6-hydroxypyridin-2-yl)-1,2,4-oxadiazol-3-yl]amino}-2-methylphenyl)-1,7-dimethyl-1,2-dihydro-1,6-naphthyridin-2-one] had an IC50 of 265 nM.

For `Cc1cc2c(cn1)cc(-c1cc(Nc3noc(-c4ccc(CO)cc4)n3)ccc1C)c(=O)n2C` [Compound A43, 3-[5-({5-[4-(hydroxymethyl)phenyl]-1,2,4-oxadiazol-3-yl}amino)-2-methylphenyl]-1,7-dimethyl-1,2-dihydro-1,6-naphthyridin-2-one], the IC50 was found to be 386 nM. This IC50 and that of the compound before are within 1.5-fold of each other.

`Cc1cc2c(cn1)cc(-c1cc(Nc3noc(-c4csc(-c5cccnc5)n4)n3)ccc1C)c(=O)n2C` [Compound A44, 1,7-dimethyl-3-[2-methyl-5-({5-[2-(pyridin-3-yl)-1,3-thiazol-4-yl]-1,2,4-oxadiazol-3-yl}amino)phenyl]-1,2-dihydro-1,6-naphthyridin-2-one]: the IC50 amounted to 456 nM.

`Cc1cc2c(cn1)cc(-c1cc(Nc3noc(-c4nc(C)oc4C)n3)ccc1C)c(=O)n2C` [Compound A45, 3-(5-{[5-(2,5-dimethyl-1,3-oxazol-4-yl)-1,2,4-oxadiazol-3-yl]amino}-2-methylphenyl)-1,7-dimethyl-1,2-dihydro-1,6-naphthyridin-2-one] registered an IC50 of 263 nM.

`Cc1cc2c(cn1)cc(-c1cc(Nc3noc(-c4cc5cc(Cl)ccc5[nH]4)n3)ccc1C)c(=O)n2C` [Compound A46, 3-(5-{[5-(5-chloro-1H-indol-2-yl)-1,2,4-oxadiazol-3-yl]amino}-2-methylphenyl)-1,7-dimethyl-1,2-dihydro-1,6-naphthyridin-2-one] displayed an IC50 of 338 nM.

In turn, `Cc1cc2c(cn1)cc(-c1cc(Nc3noc(-c4cccc(C)n4)n3)ccc1C)c(=O)n2C` [Compound A47, 1,7-dimethyl-3-(2-methyl-5-{[5-(6-methylpyridin-2-yl)-1,2,4-oxadiazol-3-yl]amino}phenyl)-1,2-dihydro-1,6-naphthyridin-2-one] had an IC50 of 311 nM.

Consider `Cc1cc2c(cn1)cc(-c1cc(Nc3noc(-c4ccc(C)nc4Cl)n3)ccc1C)c(=O)n2C` [Compound A48, 3-(5-{[5-(2-chloro-6-methylpyridin-3-yl)-1,2,4-oxadiazol-3-yl]amino}-2-methylphenyl)-1,7-dimethyl-1,2-dihydro-1,6-naphthyridin-2-one], for which the IC50 worked out at 361 nM.

The compound `Cc1cc2c(cn1)cc(-c1cc(Nc3noc(-c4cccc(Cl)n4)n3)ccc1C)c(=O)n2C` [Compound A49, 3-(5-{[5-(6-chloropyridin-2-yl)-1,2,4-oxadiazol-3-yl]amino}-2-methylphenyl)-1,7-dimethyl-1,2-dihydro-1,6-naphthyridin-2-one] yielded an IC50 of 333 nM.

In turn, `Cc1cc2c(cn1)cc(-c1cc(Nc3noc(-c4ccncc4)n3)ccc1C)c(=O)n2C` [Compound A50, 1,7-dimethyl-3-(2-methyl-5-{[5-(pyridin-4-yl)-1,2,4-oxadiazol-3-yl]amino}phenyl)-1,2-dihydro-1,6-naphthyridin-2-one] yielded an IC50 of 271 nM. This IC50 and that of the compound before are within 1.5-fold of each other.

With `Cc1ccc(-c2nc(Nc3ccc(C)c(-c4cc5cnc(C)cc5n(C)c4=O)c3)no2)cn1` [Compound A51, 1,7-dimethyl-3-(2-methyl-5-(5-(6-methylpyridin-3-yl)-1,2,4-oxadiazol-3-ylamino)phenyl)-1,6-naphthyridin-2(1H)-one], the IC50 was found to be 119 nM.

In the case of `Cc1cc2c(cn1)cc(-c1cc(Nc3noc(-c4ccccn4)n3)ccc1C)c(=O)n2C` [Compound A52, 1,7-dimethyl-3-(2-methyl-5-(5-(pyridin-2-yl)-1,2,4-oxadiazol-3-ylamino)phenyl)-1,6-naphthyridin-2(1H)-one], the half-maximal inhibitory concentration (IC50) was determined as 68 nM.

For the compound `Cc1cncc(-c2nc(Nc3ccc(C)c(-c4cc5cnc(C)cc5n(C)c4=O)c3)no2)c1` [Compound A53, 1,7-dimethyl-3-(2-methyl-5-{[5-(5-methylpyridin-3-yl)-1,2,4-oxadiazol-3-yl]amino}phenyl)-1,2-dihydro-1,6-naphthyridin-2-one], it took 427 nM to reach half-maximal inhibition (IC50).

For the compound `Cc1cc2c(cn1)cc(-c1cc(Nc3noc(C(C)(F)F)n3)ccc1C)c(=O)n2C` [Compound A54, 3-(5-(5-(1,1-difluoroethyl)-1,2,4-oxadiazol-3-ylamino)-2-methylphenyl)-1,7-dimethyl-1,6-naphthyridin-2(1H)-one], the IC50 is 148 nM.

`Cc1cc2c(cn1)cc(-c1cc(Nc3noc(CC(C)O)n3)ccc1C)c(=O)n2C` (stereo not drawn) [Compound A55, 3-(5-{[5-(2-hydroxypropyl)-1,2,4-oxadiazol-3-yl]amino}-2-methylphenyl)-1,7-dimethyl-1,2-dihydro-1,6-naphthyridin-2-one] had an IC50 of 294 nM. Against the preceding compound, the IC50 is about 2-fold higher.

The compound `Cc1cc2c(cn1)cc(-c1cc(Nc3noc(CC(C)(C)O)n3)ccc1C)c(=O)n2C` [Compound A56, 3-(5-(5-(2-hydroxy-2-methylpropyl)-1,2,4-oxadiazol-3-ylamino)-2-methylphenyl)-1,7-dimethyl-1,6-naphthyridin-2(1H)-one] showed an IC50 of 230 nM. This IC50 and that of the compound before are within 1.5-fold of each other.

Take `Cc1cc2c(cn1)cc(-c1cc(Nc3noc(C4(O)CC4)n3)ccc1C)c(=O)n2C` [Compound A57, 3-(5-(5-(1-hydroxycyclopropyl)-1,2,4-oxadiazol-3-ylamino)-2-methylphenyl)-1,7-dimethyl-1,6-naphthyridin-2(1H)-one]: the IC50 came to 185 nM.

In turn, `Cc1cc2c(cn1)cc(-c1cc(Nc3noc(C4(C(F)(F)F)CC4)n3)ccc1C)c(=O)n2C` [Compound A58, 1,7-dimethyl-3-(2-methyl-5-(5-(1-(trifluoromethyl)cyclopropyl)-1,2,4-oxadiazol-3-ylamino)phenyl)-1,6-naphthyridin-2(1H)-one] gave an IC50 of 399 nM.

With `Cc1cc2c(cn1)cc(-c1cc(Nc3noc(C4CCCOC4)n3)ccc1C)c(=O)n2C` (stereo not drawn) [Compound A59, 1,7-dimethyl-3-(2-methyl-5-{[5-(oxan-3-yl)-1,2,4-oxadiazol-3-yl]amino}phenyl)-1,2-dihydro-1,6-naphthyridin-2-one], inhibition was half-maximal at 233 nM (IC50).

Regarding `Cc1cc2c(cn1)cc(-c1cc(Nc3noc(-c4c(F)cccc4F)n3)ccc1C)c(=O)n2C` [Compound A60, 3-(5-{[5-(2,6-difluorophenyl)-1,2,4-oxadiazol-3-yl]amino}-2-methylphenyl)-1,7-dimethyl-1,2-dihydro-1,6-naphthyridin-2-one], inhibition was half-maximal at 82 nM (IC50). Against the preceding compound, the IC50 is about 2.8-fold lower.

The record behind these values is patent US8278452B2, “Heterocyclic compounds and compositions as c-kit and PDGFR kinase inhibitors” (IRM LLC, priority 2008, dated 2012).
